# Target: Aldo-keto reductase family 1 member B1 (Homo sapiens, UniProt P15121)
# Assay: Inhibition of recombinant human aldose reductase using dl-glyceraldehyde as substrate after 10 mins by spectrophotometry
row,Compound,IC50 [µM]
1,CC(CC(=O)C[C@@H](C)[C@H]1C[C@H](O)[C@@]2(C)C3=C(C(=O)C[C@]12C)[C@@]1(C)CCC(=O)C(C)(C)[C@@H]1CC3=O)C(=O)O (some centres not stated) [GANODERIC ACID J],> 194
2,C[C@H](CC(=O)C[C@@H](C)[C@H]1C[C@H](O)[C@@]2(C)C3=C(C(=O)C[C@]12C)[C@@]1(C)CCC(=O)C(C)(C)[C@@H]1C[C@@H]3O)C(=O)O [GANODERIC ACID A],> 193
3,C[C@H](CC(=O)C[C@@H](C)[C@H]1CC(=O)[C@@]2(C)C3=C(C(=O)C[C@]12C)[C@@]1(C)CCC(=O)C(C)(C)[C@@H]1C[C@@H]3O)C(=O)O [GANODERIC ACID C1],> 194
4,CC(CC(=O)C[C@@H](C)[C@H]1CC(=O)[C@@]2(C)C3=C(C(=O)[C@@H](O)[C@]12C)[C@@]1(C)CC[C@H](O)C(C)(C)[C@@H]1CC3=O)C(=O)O (some centres not stated) [GANODERIC ACID C6],> 193
5,CC(CC(=O)C[C@@H](C)[C@H]1CC(=O)[C@@]2(C)C3=C(C(=O)C[C@]12C)[C@@]1(C)CC[C@H](O)C(C)(C)[C@@H]1C[C@@H]3O)C(=O)O (some centres not stated) [GANODERIC ACID B],> 193
6,CC(=O)O[C@@H]1C(=O)C2=C([C@@H](O)C[C@H]3C(C)(C)[C@@H](O)CC[C@]23C)[C@]2(C)C(=O)C[C@H]([C@H](C)CC(=O)CC(C)C(=O)O)[C@@]12C (some centres not stated) [GANODERIC ACID K],> 174
7,COC(=O)C(C)CC(=O)/C=C(\C)[C@H]1C[C@H](O)[C@@]2(C)C3=C(C(=O)C[C@]12C)[C@@]1(C)CCC(=O)C(C)(C)[C@@H]1C[C@@H]3O (some centres not stated) [METHYL GANODERENATE A],> 184
8,CC(CC(=O)C[C@@H](C)[C@H]1C[C@H](O)[C@@]2(C)C3=C(C(=O)C[C@]12C)[C@@]1(C)CC[C@H](O)C(C)(C)[C@@H]1CC3)C(=O)O (some centres not stated) [GANOLUCIDIC ACID B],> 199
9,COC(=O)C(C)CC(=O)C[C@@H](C)[C@H]1CC(=O)[C@@]2(C)C3=C([C@@H](O)C[C@]12C)[C@@]1(C)CCC(=O)C(C)(C)[C@@H]1C[C@@H]3O (some centres not stated),> 189
10,COC(=O)C(C)CC(=O)C[C@@H](C)[C@H]1C[C@H](O)[C@@]2(C)C3=C(C(=O)C[C@]12C)[C@@]1(C)CCC(=O)C(C)(C)[C@@H]1C[C@@H]3O (some centres not stated) [METHYL GANODERATE A],> 189
11,CC(=O)O[C@@H]1C(=O)C2=C(C(=O)C[C@H]3C(C)(C)[C@@H](O)CC[C@]23C)[C@]2(C)C(=O)C[C@H]([C@H](C)CC(=O)CC(C)C(=O)O)[C@@]12C (some centres not stated) [GANODERIC ACID H],> 175
12,C[C@H](CC(=O)C[C@@H](C)[C@H]1C[C@H](O)[C@@]2(C)C3=C(C(=O)C[C@]12C)[C@@]1(C)CC[C@H](O)C(C)(C)[C@@H]1C[C@@H]3O)C(=O)O [GANODERIC ACID C2],43.8
13,CC(CC(=O)C[C@@H](C)[C@H]1CC(=O)[C@@]2(C)C3=C(C(=O)[C@@H](O)[C@]12C)[C@@]1(C)CC[C@H](O)C(C)(C)[C@@H]1C[C@@H]3O)C(=O)O (some centres not stated) [GANODERIC ACID G],> 188
14,COC(=O)[C@H](C)CC(=O)C[C@@H](C)[C@H]1C[C@H](O)[C@@]2(C)C3=C(C(=O)C[C@]12C)[C@@]1(C)CC[C@H](O)C(C)(C)[C@@H]1C[C@@H]3O,> 184
15,C/C(=C\C(=O)CC(C)C(=O)O)[C@H]1C[C@H](O)[C@@]2(C)C3=C(C(=O)C[C@]12C)[C@@]1(C)CCC(=O)C(C)(C)[C@@H]1C[C@@H]3O (some centres not stated) [GANODERENIC ACID A],119
16,CC(CC(=O)C[C@@H](C)[C@H]1CC(=O)[C@@]2(C)C3=C(C(=O)C[C@]12C)[C@@]1(C)CCC(=O)C(C)(C)[C@@H]1C[C@@H]3O)C(=O)O (some centres not stated) [GANODERIC ACID D],> 195
17,CC(CC(=O)C[C@@H](C)[C@H]1CC(=O)[C@@]2(C)C3=C([C@@H](O)C[C@]12C)[C@@]1(C)CCC(=O)C(C)(C)[C@@H]1C[C@@H]3O)C(=O)O (some centres not stated) [GANODERIC ACID DF],22.8

# Source: ChEMBL document CHEMBL1921771, “Structure-activity relationships of ganoderma acids from Ganoderma lucidum as aldose reductase inhibitors” (Bioorg Med Chem Lett, 2011)
